SMILES strings stand for the structures.

For test [1], the target named is T1, recombinant human ALK5 (TGF-βR1) protein (Homo sapiens, UniProt P36897).
T1 construct: purchased Life Technologies PR9075A
T1 sequence (P36897 34-503): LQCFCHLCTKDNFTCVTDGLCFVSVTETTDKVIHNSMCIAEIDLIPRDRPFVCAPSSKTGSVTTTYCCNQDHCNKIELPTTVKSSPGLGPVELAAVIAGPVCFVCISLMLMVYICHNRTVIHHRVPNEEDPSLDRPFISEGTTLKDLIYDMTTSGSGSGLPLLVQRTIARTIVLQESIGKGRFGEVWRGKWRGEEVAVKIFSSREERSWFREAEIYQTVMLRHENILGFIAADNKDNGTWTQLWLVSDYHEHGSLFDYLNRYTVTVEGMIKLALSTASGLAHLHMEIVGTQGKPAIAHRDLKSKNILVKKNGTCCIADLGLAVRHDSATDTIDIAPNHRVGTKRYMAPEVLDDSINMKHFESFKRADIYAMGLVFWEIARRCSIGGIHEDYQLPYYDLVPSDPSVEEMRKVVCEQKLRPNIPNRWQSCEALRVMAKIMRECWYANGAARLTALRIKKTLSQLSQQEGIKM
The experiment in a line: Biochemical ALK5 (TGF-βR1) assay to measure pKi (LANCE Ultra ULight kinase assay). The note with it: apparent pKi from pIC50 by Cheng-Prusoff, read-out: ALK5 pKi (converted). Summed up:
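Compounds (10 μM to 25 pM) preincubated 60 minutes at room temperature with enzyme, then reaction run 60 minutes at 37° C with ATP added as 125 μM (5× final). Stopped with EDTA plus Eu-anti-phospho-Topoisomerase 2-alpha (Thr1342) antibody, TR-FRET read at 665 nm; pIC50 converted to pKi via Cheng-Prusoff.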

The subject of test [2] is TGF-β-stimulated SMAD3 phosphorylation in BEAS-2B cells. Kind of test: Cellular ALK5 potency assay, inhibition of TGF-β stimulated pSMAD3 formation in BEAS-2B cells. The class given is cell-based. The conditions noted are these: Homo sapiens; inhibition of TGF-β stimulated pSMAD3 formation, BEAS-2B cells; read-out: BEAS2B pIC50 (converted). Summed up:
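BEAS-2B human lung epithelial cells pre-treated 1 h at 37° C with compound in HBSS/25 mM HEPES/1% BSA, then stimulated 30 min with 10 ng/mL TGF-β (final). Lysates assayed for pSMAD3 by AlphaLISA; pIC50 from dose-dependent change versus stimulated untreated cells.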

Consider `Cc1cccc(-c2n[nH]cc2-c2ccc3ncc(CNCCN4CCN(C(C)C)CC4)cc3n2)n1` [Compound 324, 2-(4-isopropylpiperazin-1-yl)-N-[[6-[3-(6-methyl-2-pyridyl)-1H-pyrazol-4-yl]-1,5-naphthyridin-3-yl]methyl]ethanamine], for which the Ki in test [1] is 0.398 to 3.16 nM. In addition, in test [2], the IC50 was 25.1 to 158 nM.
As for `COC(=O)CC1CN(c2cnc3ccc(-c4nc[nH]c4-c4cccc(C)n4)cc3c2)CCN1` (stereo not shown) [Compound 60, methyl 2-(4-(6-(5-(6-methylpyridin-2-yl)-1H-imidazol-4-yl)quinolin-3-yl)piperazin-2-yl)acetate], the Ki in test [1] was 0.0398 to 0.316 nM. The IC50 in test [2] was 25.1 to 158 nM.
On the same counts, the results for `CNC1CN(c2cnc3ccc(-c4c[nH]nc4-c4cccc(C)n4)nc3c2)C1` [Compound 94, N-methyl-1-[6-[3-(6-methyl-2-pyridyl)-1H-pyrazol-4-yl]-1,5-naphthyridin-3-yl]azetidin-3-amine] are 0.0398 to 0.316 nM and 25.1 to 158 nM.
In the case of `Cc1cccc(-c2n[nH]cc2-c2ccc3ncc(N4CC5CNCC54)cc3n2)n1` (stereo not shown) [Compound 260, 7-(3,6-diazabicyclo[3.2.0]heptan-6-yl)-2-[3-(6-methyl-2-pyridyl)-1H-pyrazol-4-yl]-1,5-naphthyridine], the Ki in test [1] was 0.398 to 3.16 nM. For the same molecule, the IC50 in test [2] is 200 to 1260 nM.
On the same counts, the results for `Cc1cccc(-c2[nH]cnc2-c2ccc3nccc(C(=O)O[C@H]4C[C@H](N)C4)c3c2)n1` [Compound 1107, (3-aminocyclobutyl) 6-[5-(6-methyl-2-pyridyl)-1H-imidazol-4-yl]quinoline-4-carboxylate] are 0.398 to 3.16 nM and 25.1 to 158 nM.
For `Cc1nc(-c2[nH]cnc2-c2ccc3ncc(-c4cn5c(n4)CNCC5)cc3n2)ccc1F` [Compound 91, 2-[5-(5-fluoro-6-methyl-2-pyridyl)-1H-imidazol-4-yl]-7-(5,6,7,8-tetrahydroimidazo[1,2-a]pyrazin-2-yl)-1,5-naphthyridine], the Ki in test [1] was 0.0398 to 0.316 nM. Further, in test [2], the IC50 is 25.1 to 158 nM.
For `Cc1cccc(-c2[nH]nnc2-c2ccc3ncc(NCCN4CCN(C(C)C)CC4)cc3n2)n1` [Compound 46, N-[2-(4-isopropylpiperazin-1-yl)ethyl]-6-[5-(6-methyl-2-pyridyl)-1H-triazol-4-yl]-1,5-naphthyridin-3-amine], in that order: 0.398 to 3.16 nM and 200 to 1260 nM.
In the case of `Cc1cccc(-c2[nH]cnc2-c2ccc3ncc(-c4cc(C(=O)OCC5CNC5)ccn4)cc3c2)n1` [Compound 1157, azetidin-3-ylmethyl 2-[6-[5-(6-methyl-2-pyridyl)-1H-imidazol-4-yl]-3-quinolyl]pyridine-4-carboxylate], the Ki in test [1] was 0.0398 to 0.316 nM. For the same molecule, the IC50 in test [2] is 25.1 to 158 nM.
On the same counts, the results for `Cc1cccc(-c2n[nH]cc2-c2ccc3ncc(N)cc3n2)n1` [Compound 300, 6-[3-(6-methyl-2-pyridyl)-1H-pyrazol-4-yl]-1,5-naphthyridin-3-amine] are under 0.0316 nM and under 20 nM.
With `Cc1cccc(-c2[nH]cnc2-c2ccc3ncc(N4CCNCC4)cc3c2)n1` [Compound 412, 6-[5-(6-methyl-2-pyridyl)-1H-imidazol-4-yl]-3-piperazin-1-yl-quinoline], the Ki in test [1] was 0.0398 to 0.316 nM. Also, the IC50 in test [2] is under 20 nM.
On the same counts, the results for `Cc1cccc(-c2n[nH]cc2-c2ccc3nccc(N(C)C)c3n2)n1` [Compound 837, N,N-dimethyl-6-[3-(6-methyl-2-pyridyl)-1H-pyrazol-4-yl]-1,5-naphthyridin-4-amine] are 0.0398 to 0.316 nM and 25.1 to 158 nM.
For `CN[C@H]1CC[C@H](OC(=O)c2ccnc3ccc(-c4cn[nH]c4-c4cccc(C)n4)cc23)CC1` [Compound 1179, [4-(methylamino)cyclohexyl] 6-[5-(6-methyl-2-pyridyl)-1H-pyrazol-4-yl]quinoline-4-carboxylate], in that order: 0.398 to 3.16 nM and 25.1 to 158 nM.
On to `Cc1nc(-c2n[nH]cc2-c2ccc3ncc(-c4ncc5n4CCNC5)cc3n2)ccc1F` [Compound 39, 2-[3-(5-fluoro-6-methyl-2-pyridyl)-1H-pyrazol-4-yl]-7-(5,6,7,8-tetrahydroimidazo[1,5-a]pyrazin-3-yl)-1,5-naphthyridine], for which the Ki in test [1] was 0.398 to 3.16 nM. For the same molecule, in test [2], the IC50 is 200 to 1260 nM.
In the case of `Cc1cc(-c2cnc3ccc(-c4c[nH]nc4-c4cccc(C)n4)nc3c2)ccn1` [Compound 454, 7-(2-methyl-4-pyridyl)-2-[3-(6-methyl-2-pyridyl)-1H-pyrazol-4-yl]-1,5-naphthyridine], the Ki in test [1] was under 0.0316 nM. The IC50 in test [2] is under 20 nM.
For `Cc1cccc(-c2n[nH]cc2-c2ccc3ncc(-c4cnc(O)nc4)cc3n2)n1` [Compound 69, 5-[6-[3-(6-methyl-2-pyridyl)-1H-pyrazol-4-yl]-1,5-naphthyridin-3-yl]pyrimidin-2-ol], in that order: 0.0398 to 0.316 nM and 1580 to 10000 nM.
For `COc1[nH]nc(-c2cccc(C)n2)c1-c1ccc2ncc(-c3cnn4c3NCC4)cc2n1` [Compound 371, 7-(2,3-dihydro-1H-imidazo[1,2-b]pyrazol-7-yl)-2-[5-methoxy-3-(6-methyl-2-pyridyl)-1H-pyrazol-4-yl]-1,5-naphthyridine], in that order: 0.398 to 3.16 nM and 200 to 1260 nM.
For `Cc1cccc(-c2[nH]cnc2-c2ccc3ncc(-c4cncc(C(=O)OC5CCNCC5)c4)cc3c2)n1` [Compound 136, 4-piperidyl 5-[6-[5-(6-methyl-2-pyridyl)-1H-imidazol-4-yl]-3-quinolyl]pyridine-3-carboxylate], in that order: 0.0398 to 0.316 nM and 200 to 1260 nM.
On to `Cc1cccc(-c2n[nH]cc2-c2ccc3ncc(-c4nnn5c4CNCC5)cc3c2)n1` [Compound 343, 6-[3-(6-methyl-2-pyridyl)-1H-pyrazol-4-yl]-3-(4,5,6,7-tetrahydrotriazolo[1,5-a]pyrazin-3-yl)quinoline], for which the Ki in test [1] is 0.0398 to 0.316 nM. Besides, the IC50 in test [2] is 25.1 to 158 nM.
With `Cc1cccc(-c2[nH]ncc2-c2ccc3ncc(C(=O)OCCN4CCC[C@@H](N)C4)cc3c2)n1` [Compound 1241, 2-[(3R)-3-amino-1-piperidyl]ethyl 6-[5-(6-methyl-2-pyridyl)-1H-pyrazol-4-yl]quinoline-3-carboxylate], the Ki in test [1] is 0.0398 to 0.316 nM. In addition, the IC50 in test [2] was 25.1 to 158 nM.
As to `Cc1cccc(-c2[nH]cnc2-c2ccc3ncc(C4=CCC(NC(=O)N5CCNCC5)CC4)cc3c2)n1` (stereo not shown) [Compound 153, N-[4-[6-[5-(6-methyl-2-pyridyl)-1H-imidazol-4-yl]-3-quinolyl]cyclohex-3-en-1-yl]piperazine-1-carboxamide], in test [1], the Ki is 0.0398 to 0.316 nM. In test [2], the IC50 is 200 to 1260 nM.
For `Cc1nc(-c2n[nH]cc2-c2ccc3ncc(-c4nc(C(F)(F)F)n5c4CNCC5)cc3n2)ccc1F` [Compound 51, 2-[3-(5-fluoro-6-methyl-2-pyridyl)-1H-pyrazol-4-yl]-7-[3-(trifluoromethyl)-5,6,7,8-tetrahydroimidazo[1,5-a]pyrazin-1-yl]-1,5-naphthyridine], the Ki in test [1] is 0.0398 to 0.316 nM. In addition, in test [2], the IC50 was 25.1 to 158 nM.
In the case of `Cc1cccc(-c2[nH]nnc2-c2ccc3ncc(-c4cn[nH]c4)cc3n2)n1` [Compound 301, 2-[5-(6-methyl-2-pyridyl)-1H-triazol-4-yl]-7-(1H-pyrazol-4-yl)-1,5-naphthyridine], the Ki in test [1] was 0.0398 to 0.316 nM. The IC50 in test [2] is 25.1 to 158 nM.
Consider `Cc1cccc(-c2n[nH]cc2-c2ccc3ncc(N4CC5CN(C(C)C)CC54)cc3n2)n1` (stereo not shown) [Compound 186, 7-(3-isopropyl-3,6-diazabicyclo[3.2.0]heptan-6-yl)-2-[3-(6-methyl-2-pyridyl)-1H-pyrazol-4-yl]-1,5-naphthyridine], for which, in test [1], the Ki is 0.398 to 3.16 nM. Further, in test [2], the IC50 was 25.1 to 158 nM.
For `FC(F)c1cccc(-c2n[nH]cc2-c2ccc3ncc(N4CCCNCC4)cc3n2)n1` [Compound 446, 7-(1,4-diazepan-1-yl)-2-[3-[6-(difluoromethyl)-2-pyridyl]-1H-pyrazol-4-yl]-1,5-naphthyridine], in that order: 0.0398 to 0.316 nM and 25.1 to 158 nM.
For `Cc1cccc(-c2[nH]cnc2-c2ccc3ncc(N4CCC5(CC4)CNC5)cc3c2)n1` [Compound 206, 3-(2,7-diazaspiro [3.5]nonan-7-yl)-6-[5-(6-methyl-2-pyridyl)-1H-imidazol-4-yl]quinoline], in that order: 0.0398 to 0.316 nM and 25.1 to 158 nM.
For `Cc1cccc(-c2n[nH]cc2-c2ccc3ncc(-c4[nH]nc5c4CCN5)cc3n2)n1` [Compound 393, 2-[3-(6-methyl-2-pyridyl)-1H-pyrazol-4-yl]-7-(2,4,5,6-tetrahydropyrrolo[2,3-c]pyrazol-3-yl)-1,5-naphthyridine], in that order: under 0.0316 nM and 25.1 to 158 nM.

The values above are taken from patent US11590116B2 (THERAVANCE BIOPHARMA R&D IP, LLC, priority 2019, dated 2023).
